15 molecules from ChEMBL document CHEMBL4043189, “Design, synthesis, and evaluation of substituted nicotinamide adenine dinucleotide (NAD+) synthetase inhibitors as potential antitubercular agents” (Bioorg Med Chem Lett, 2017) can be followed below.

≈ marks a conversion by molar mass, not a printed value.

Broadly, the IC50 is the point on the concentration scale where inhibition reaches its midpoint. As usually defined, the MIC is the lowest concentration found to suppress growth. Higher therefore signals a less susceptible organism.

A short description of assay [1]: Inhibition of recombinant Mycobacterium tuberculosis glutamine-dependent NadE using NAAD as substrate assessed as residual activity preincubated for 20 mins followed L-glutamine addition measured over 40 mins by spectrophotometric based PNP enzyme coupled assay.
Assay [2] has as its system Mycobacterium tuberculosis. Briefly: Antitubercular activity against Mycobacterium tuberculosis H37Rv ATCC 27294 grown under Middlebrook 7H9 broth after 2 weeks by microscopic analysis. Particulars: H37Rv ATCC 27294, 336 h. The class given is functional.
The subject of assay [3] is Mycobacterium tuberculosis. Briefly: Antitubercular activity against NRP-2 stage of Mycobacterium tuberculosis H37Rv ATCC 27294 grown under glycerol free dubos broth after 7 days by microscopic analysis. The class given is functional. Conditions: H37Rv ATCC 27294, 168 h.
A short description of assay [4]: Inhibition of Bacillus anthracis NadE using guanidine-HCl as substrate after 10 mins by HPLC analysis.
Another assay relates to Bacillus anthracis. Nature of the assay: Antibacterial activity against Bacillus anthracis Sterne spore forms measured every hour for 5 hrs by broth microdilution method. The class given is functional.
A short description of assay [5]: Inhibition of recombinant Mycobacterium tuberculosis NH3-dependent NadE using NAAD as substrate assessed as residual activity preincubated for 20 mins followed NH4Cl addition measured over 40 mins by spectrophotometric based PNP enzyme coupled assay.
The test system of assay [6] is Mycobacterium tuberculosis. Nature of the assay: Antitubercular activity against Mycobacterium tuberculosis H37Rv incubated for 7 days under anaerobic condition measured by broth microdilution method. The class given is functional. Particulars: 168 h.

As to `O=C(Nc1ccc([N+](=O)[O-])cc1)Nc1ccc(S(=O)(=O)Nc2ccc(O)cc2)cc1`, the IC50 in assay [1] is 160 µM. For the same molecule, the MIC in assay [2] was determined as 37 µg/mL (≈ 86.4 µM); in assay [3] it was 50 µg/mL (≈ 117 µM).

In assay [4], `NCc1ccc(S(=O)(=O)Nc2ccc(NC(=O)Nc3cccc([N+](=O)[O-])c3)cc2)cc1` yielded an IC50 of 15.3 µM. The MIC in the assay on Bacillus anthracis is above 240 µM.

As for `O=C(Nc1ccc([N+](=O)[O-])cc1)Nc1ccc(S(=O)(=O)Nc2cccc(C(F)(F)F)c2)cc1`, the IC50 in assay [1] is 130 µM; in assay [5], above 200 µM. Further, the MIC turned out to be 37 µg/mL (≈ 77 µM) in assay [2] and 50 µg/mL (≈ 104 µM) in assay [3].

For the molecule `COC(=O)c1cc2cc(OCc3ccccc3)ccc2n1CCCCCCCOC(=O)Cc1ccc([N+](C)(C)C)cc1`, in assay [6], the lowest concentration to inhibit growth (MIC) was 20 µM.

Consider `O=C(Nc1ccc([N+](=O)[O-])cc1)Nc1ccc(S(=O)(=O)Nc2ccc(I)cc2)cc1`, for which, in assay [1], the IC50 was 370 µM. Besides, the MIC is 37 µg/mL (≈ 68.7 µM) in assay [2] and 50 µg/mL (≈ 92.9 µM) in assay [3].

As to `O=C(Nc1ccc([N+](=O)[O-])cc1)Nc1ccc(S(=O)(=O)Nc2ccc(Cl)cc2)cc1`, the IC50 in assay [1] is 520 µM. Moreover, the MIC in assay [2] was determined as 25 µg/mL (≈ 55.9 µM); in assay [3] it was 37 µg/mL (≈ 82.8 µM).

With `NNC(=O)c1ccncc1` [ISONIAZID], the MIC amounted to 0.05 µg/mL (≈ 0.365 µM) in assay [2] and 0.03 µg/mL (≈ 0.219 µM) in assay [3].

Consider `O=C(Nc1ccc([N+](=O)[O-])cc1)Nc1ccc(S(=O)(=O)Nc2ccc(Cl)c(Cl)c2)cc1`, for which the results for the IC50 in assay [4] and in assay [1] were 6.4 µM and 1000 µM, respectively. Moreover, the MIC in assay [2] came to 25 µg/mL (≈ 51.9 µM); in assay [3] it was 50 µg/mL (≈ 104 µM).

Regarding `O=C(Nc1ccc([N+](=O)[O-])cc1)Nc1ccc(S(=O)(=O)Nc2ccccc2)cc1`, the IC50 in assay [1] is 125 µM; in assay [5], above 200 µM. Also, the values for the MIC in assay [2] and in assay [3] were 75 µg/mL (≈ 182 µM) and 12.5 µg/mL (≈ 30.3 µM), respectively.

Regarding `COc1ccc(NS(=O)(=O)c2ccc(NC(=O)Nc3ccc([N+](=O)[O-])cc3)cc2)cc1`, the IC50 in assay [1] is 130 µM; in assay [5] it was above 200 µM. For the same molecule, the MIC came to 25 µg/mL (≈ 56.5 µM) in assay [2] and 50 µg/mL (≈ 113 µM) in assay [3].

In the case of `O=C(Nc1ccc([N+](=O)[O-])cc1)Nc1ccc(S(=O)(=O)Nc2ccc(F)cc2)cc1`, in assay [1], the IC50 was 170 µM. For the same molecule, the results for the MIC in assay [2] and in assay [3] were 19 µg/mL (≈ 44.1 µM) and 25 µg/mL (≈ 58.1 µM), respectively.

For the molecule `O=C(Nc1ccc([N+](=O)[O-])cc1)Nc1ccc(S(=O)(=O)Nc2ccc([N+](=O)[O-])cc2)cc1`, the IC50 was 90 µM in assay [1] and above 200 µM in assay [5]. In addition, the figures for the MIC in assay [2] and in assay [3] were 37 µg/mL (≈ 80.9 µM) and 25 µg/mL (≈ 54.7 µM), respectively.

As to `O=C(Nc1ccc([N+](=O)[O-])cc1)Nc1ccc(S(=O)(=O)Nc2cccc([N+](=O)[O-])c2)cc1`, the IC50 in assay [1] stood at 170 µM. Moreover, the figures for the MIC in assay [2] and in assay [3] were 25 µg/mL (≈ 54.7 µM) and 12.5 µg/mL (≈ 27.3 µM), respectively.

Consider `O=C(Nc1ccc([N+](=O)[O-])cc1)Nc1ccc(S(=O)(=O)Nc2ccc([N+](=O)[O-])c(C(F)(F)F)c2)cc1`, for which the IC50 in assay [1] was 190 µM. In addition, the MIC was 100 µg/mL (≈ 190 µM) in assay [2] and 50 µg/mL (≈ 95.2 µM) in assay [3].

Consider `N#Cc1ccc(NS(=O)(=O)c2ccc(NC(=O)Nc3ccc([N+](=O)[O-])cc3)cc2)cc1`, for which the IC50 in assay [1] turned out to be 190 µM. Further, the MIC in assay [2] and in assay [3] was 37 µg/mL (≈ 84.6 µM) each time.
